Measured values: US9610273B2, “Method for the treatment of hypercholesterolemia” (SAMI LABS LIMITED, priority 2014, dated 2017)
Marks after values point to notes of the source that are not given here.

Key:
mice = test: Acute Oral Toxicity of Calebin A; format: in vivo
Method: No mortality was observed up to 2000 mg/kg p.o. in mice up to two weeks of observation.

[1] = test system: C57 mice on high fat diet (60 kcal % Fat); test: Effect of Calebin A on serum clinical chemistry parameters in high fat diet obese mice (hypercholesterolemia and hyperlipidemia); format: in vivo; conditions: for change in mean Albumin values: female animals, considered incidental; for ALT/SGPT / AST/SGOT / Albumin / Glucose / Total Cholesterol / Total Protein / Triglycerides / HDL / LDL / VLDL: 28 days, serum, n = 5; for ALT/SGPT / AST/SGOT / Albumin / Glucose / Total Cholesterol / Total Protein / Triglycerides: Mean ± SD; for HDL / LDL / VLDL: mean
From the text: d. Diet: The animals were fed ad libitum with AMRUT Laboratory Animal feed manufactured by Pranav Agro Industries Limited, Sangli, Maharastra throughout the acclimatization Open Source Diet D12450B diet (with 10 kcal % Fat) and Open Source Diet D12492 High fat diet (with 60 kcal % Fat) manufactured by Research Diet Inc, USA procured from Indus Marketing, Hyderabad, Andhra Pradesh, INDIA was used for induction of obesity and the main study.
Grouping of animals was done on the last day of acclimatization by body weight randomization and stratification method.
The animals were divided into 5 groups viz., Group 1, 2, 3, 4 and 5 consisting of 10 animals (5 male and 5 female) each.
a. Dose Volume: Dose volume/animal=10 ml/kg body weight for all animals throughout the study period
b. Obesity induction: The G1 Control group animals were fed with normal control diet feed D12450B containing 10 kcal % fat and the G2 to G5 group animals were fed with high fat diet feed D12492 containing 60 kcal % fat during the induction of obesity and during main study. Obesity induction was done considering the scientific rationale that obesity is a serious risk factor for hypercholesterolemia.
c. Main Study: The main study was started after the induction of obesity. The 3 doses of Calebin A was administered to animals from Day 29 daily consecutively for a period of 28 days. The feeding of diets continued in the main study in a similar way as performed in induction of obesity. The G1 Control and G2 High fat diet control group animals were administered with 0.5% CMC (Carboxy Methyl Cellulose) while other group animals received test item from Day 29 to Day 56 of the study period. The dose volume of administration was maintained according to the weekly body weight of individual animals.
d. Duration of the study: The total duration of the study was 61 days (5 days Acclimatization period+28 days Induction of obesity+[…] Main study).
The raw data obtained from the present study were subjected to computer statistical processing. The computer printout of the data (in the form of appendix) was verified with the original raw data. After verification, the data was subjected to One-way ANOVA (Analysis of Variance) with Dunnett's post test for the data on body weights, hematology and clinical chemistry parameters, organ weights using GraphPad Prism version 5.01, GraphPad Software. All analyses and comparisons was evaluated at the 95% level of confidence (P<0.05), indicated by the designated by the superscripts of a where G1 is compared to G3, G4, G5, and G6 and b where G2 is compared to G3, G4, G5, and G6 throughout the report as stated below: *: Statistically significant (P<0.05) wherever applicable.
At the completion of the study period, blood samples were collected from all the animals in tubes containing potassium ethylene […] tetra acetic acid (K2-EDTA) anticoagulant for hematology and without anticoagulant for clinical chemistry. The blood samples collected in tubes without anticoagulant were centrifuged at 3000 rpm for 10 minutes to obtain serum. Blood samples were collected humanely from retro-orbital plexus puncture method under mild ether anesthesia with the help of a fine capillary tube. The following clinical chemistry parameters were analyzed.
The following clinical chemistry parameters (TABLE III) were analyzed using the “Erba Mannheim Chem Touch analyzer” (Transasia Bio-Medicals Ltd, India) from serum samples.

[2] = conclusion, doses of 5, 10 and 20 mg/kg body weight, hypercholesterolemic mammals
[3] = female mice, G3 5 mg/kg + High fat diet (60 kcal % Fat)
[4] = female mice, G4 10 mg/kg + High fat diet (60 kcal % Fat)
[5] = female mice, G5 20 mg/kg + High fat diet (60 kcal % Fat)
[6] = male and female animals, G3, G4, G5 (5, 10, 20 mg/kg + High fat diet) compared to G2 High fat diet Control
[7] = male animals, G3, G4, G5 (5, 10, 20 mg/kg + High fat diet) compared to G2 High fat diet Control
[8] = male mice, G3 5 mg/kg + High fat diet (60 kcal % Fat)
[9] = male mice, G4 10 mg/kg + High fat diet (60 kcal % Fat)
[10] = male mice, G5 20 mg/kg + High fat diet (60 kcal % Fat)

With `COc1cc(/C=C/C(=O)COC(=O)/C=C/c2ccc(O)c(OC)c2)ccc1O` [Calebin A] the Aggression (mice; mouse, in vivo, po) was “Aggression = Nil”, the Atexia (mice; mouse, in vivo, po) was “Atexia = Nil” and the Blanching (mice; mouse, in vivo, po) was “Blanching = Nil”. For the same compound, the “Clonic Convulsions” value (mice; mouse, in vivo, po) was “Clonic Convulsions = Nil”, the Corneal (mice; mouse, in vivo, po) was “Corneal = No effect” and the Cyanosis (mice; mouse, in vivo, po) was “Cyanosis = Nil”. For the same compound, the Diarrhea (mice; mouse, in vivo, po) was “Diarrhea = Nil”, the Excitation (mice; mouse, in vivo, po) was “Excitation = Nil” and the Fear (mice; mouse, in vivo, po) was “Fear = Nil”. For the same compound, the “Fecal Output” value (mice; mouse, in vivo, po) was “Fecal Output = Normal”, the “General Locomotor Activity” value (mice; mouse, in vivo, po) was “Normal” and the “General Movement” value (mice; mouse, in vivo, po) was “General Movement = Normal”. For the same compound, the Hyperaemia (mice; mouse, in vivo, po) was “Hyperaemia = Nil”, the “Muscular Weakness” value (mice; mouse, in vivo, po) was “Muscular Weakness = Nil” and the Passive (mice; mouse, in vivo, po) was “Passive = Nil”. The “Pilo Erection” value (mice; mouse, in vivo, po) was “Pilo Erection = Nil”, the Pinnal (mice; mouse, in vivo, po) was “Pinnal = No effect” and the “Respiration Depth” value (mice; mouse, in vivo, po) was “Respiration Depth = Normal”. The “Respiration Rate” value (mice; mouse, in vivo, po) was “Respiration Rate = Normal”, the Salivation (mice; mouse, in vivo, po) was “Salivation = Nil” and the “Tonic Convulsion” value (mice; mouse, in vivo, po) was “Tonic Convulsion = Nil”. The Tremors (mice; mouse, in vivo, po) was “Tremors = Nil”, the “Urine Output” value (mice; mouse, in vivo, po) was “Urine Output = Normal” and the mortality (mice; up to 2000 mg/kg p.o., mice, up to two weeks of observation) was “No mortality”. The “HDL concentrations in the blood” value [1, 2] was “increased”, the “LDL concentrations in the blood” value [1, 2] was “decreased” and the “VLDL concentrations in the blood” value [1, 2] was “decreased”. The serum triglyceride concentrations ([1]; conclusion, doses of 5, 10 and 20 mg/kg body weight, hyperlipidemic mammals) was “lowered”, the “change in mean Albumin values” ([1]; G5 20 mg/kg + High fat diet compared to G1 Control (10 kcal % Fat)) was “statistically significant decrease” and the “change in mean Albumin values” ([1]; G5 20 mg/kg + High fat diet compared to G2 High fat diet Control) was “statistically significant decrease”. It also gave an ALT/SGPT [1, 3] of 41.73 ± 5.39 IU/L, an AST/SGOT [1, 3] of 80.51 ± 32.35 IU/L and an Albumin [1, 3] of 2.82 ± 0.19 g/dL. For the same compound, the Glucose [1, 3] was 134.52 ± 26.85 mg/dL, the “Total Cholesterol” value [1, 3] was 75.71 ± 13.90 mg/dL and the “Total Protein” value [1, 3] was 5.37 ± 0.80 g/dL. It also gave a Triglycerides [1, 3] of 60.15 ± 10.25 mg/dL, an HDL [1, 3] of 81.59 mg/dL and an LDL [1, 3] of 78.68 mg/dL. It also gave a VLDL [1, 3] of 15.14 mg/dL, an ALT/SGPT [1, 4] of 63.29 ± 32.86 IU/L and an AST/SGOT [1, 4] of 79.89 ± 50.05 IU/L. The Albumin [1, 4] was 2.80 ± 0.38 g/dL, the Glucose [1, 4] was 112.34 ± 11.35 mg/dL and the “Total Cholesterol” value [1, 4] was 47.54 ± 14.21 mg/dL. For the same compound, the “Total Protein” value [1, 4] was 4.91 ± 0.20 g/dL, the Triglycerides [1, 4] was 59.70 ± 4.33 mg/dL and the HDL [1, 4] was 66.85 mg/dL. For the same compound, the LDL [1, 4] was 61.20* ^b ± mg/dl, the VLDL [1, 4] was 9.51 mg/dL and the ALT/SGPT [1, 5] was 55.51 ± 16.94 IU/L. For the same compound, the AST/SGOT [1, 5] was 79.91 ± 36.82 IU/L, the Glucose [1, 5] was 93.58 ± 11.49 mg/dL and the “Total Cholesterol” value [1, 5] was 69.14 ± 21.88 mg/dL. The “Total Protein” value [1, 5] was 4.88 ± 0.27 g/dL, the Triglycerides [1, 5] was 52.88 ± 4.56 mg/dL and the HDL [1, 5] was 66.67 mg/dL. The LDL [1, 5] was 52.31** ^b ± mg/dl, the VLDL [1, 5] was 13.83 mg/dL and the “change in mean Low Density Lipoproteins values” [1, 6] was “decrease”. For the same compound, the “change in mean Very Low Density Lipoproteins values” [1, 6] was “decrease”, the “change in mean high Density Lipoproteins values” ([1]; male and female animals, G4, G5 (10, 20 mg/kg + High fat diet) compared to G2 High fat diet Control) was “increase” and the “change in mean Total Cholesterol values” [1, 7] was “decrease”. For the same compound, the “change in mean Triglycerides values” [1, 7] was “decrease”, the ALT/SGPT [1, 8] was 64.35 ± 24.58 IU/L and the AST/SGOT [1, 8] was 86.99 ± 35.22 IU/L. For the same compound, the Albumin [1, 8] was 2.73 ± 0.23 g/dL, the Glucose [1, 8] was 159.30 ± 17.02 mg/dL and the “Total Cholesterol” value [1, 8] was 63.46 ± 16.64 mg/dL. The “Total Protein” value [1, 8] was 4.74 ± 0.23 g/dL, the Triglycerides [1, 8] was 76.53 ± 17.11 mg/dL and the HDL [1, 8] was 20.46 mg/dL. It also gave an LDL [1, 8] of 85.55 mg/dL, a VLDL [1, 8] of 12.69 mg/dL and an ALT/SGPT [1, 9] of 54.81 ± 13.58 IU/L. The AST/SGOT [1, 9] was 89.48 ± 35.58 IU/L, the Albumin [1, 9] was 2.43 ± 0.42 g/dL and the Glucose [1, 9] was 130.49 ± 21.28 mg/dL. The “Total Protein” value [1, 9] was 5.08 ± 0.49 g/dL, the HDL [1, 9] was 41.80 mg/dL and the LDL [1, 9] was 97.45 mg/dL. The VLDL [1, 9] was 12.37*^b ± mg/dl, the ALT/SGPT [1, 10] was 48.44 ± 9.73 IU/L and the AST/SGOT [1, 10] was 90.17 ± 25.87 IU/L. The Albumin [1, 10] was 2.66 ± 0.17 g/dL, the Glucose [1, 10] was 105.89 ± 37.17 mg/dL and the “Total Cholesterol” value [1, 10] was 70.48 ± 14.59 mg/dL. For the same compound, the “Total Protein” value [1, 10] was 4.42 ± 0.48 g/dL, the HDL [1, 10] was 47.26 mg/dL and the LDL [1, 10] was 94.46 mg/dL. For the same compound, the VLDL [1, 10] was 14.10 mg/dL.
